The target in assay [1] is Mitogen-activated protein kinase 3 (Homo sapiens) (UniProt P27361). As to the kind of experiment: Inhibition of compound against mitogen-activated protein kinase 1. Details: scale not given: the % may be the effect or the level left.
The target in assay [2] is Cyclin-dependent kinase 1/cyclin B (Homo sapiens, UniProt P06493). The experiment in a line: Inhibition of Cyclin-dependent kinase 1-cyclin B. Format: protein-complex assay.
Assay [3] addresses T1, 3-phosphoinositide-dependent protein kinase 1 (Homo sapiens) (UniProt O15530).
T1 sequence (whole entry): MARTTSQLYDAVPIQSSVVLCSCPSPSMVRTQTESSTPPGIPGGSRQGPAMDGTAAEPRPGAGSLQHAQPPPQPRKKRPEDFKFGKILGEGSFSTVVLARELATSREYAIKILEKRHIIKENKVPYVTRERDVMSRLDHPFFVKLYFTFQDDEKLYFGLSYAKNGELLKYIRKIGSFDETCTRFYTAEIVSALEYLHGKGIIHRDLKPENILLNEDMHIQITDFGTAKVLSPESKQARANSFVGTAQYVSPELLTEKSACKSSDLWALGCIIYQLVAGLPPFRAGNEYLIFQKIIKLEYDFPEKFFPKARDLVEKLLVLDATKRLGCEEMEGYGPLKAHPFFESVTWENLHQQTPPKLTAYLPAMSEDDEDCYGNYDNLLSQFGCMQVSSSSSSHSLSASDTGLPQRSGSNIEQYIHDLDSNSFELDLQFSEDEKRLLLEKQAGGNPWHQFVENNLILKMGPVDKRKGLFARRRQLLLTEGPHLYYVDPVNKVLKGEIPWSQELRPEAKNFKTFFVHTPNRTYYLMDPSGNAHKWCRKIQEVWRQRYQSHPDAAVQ
The experiment in a line: Inhibition of PDK1. Details: scale not given: the % may be the effect or the level left.

Assay [4] concerns the target Casein kinase II (Homo sapiens) (UniProt P67870+P68400+P19784). As to the kind of experiment: Inhibition of Casein kinase 2. Format: protein-complex assay. Details: scale not given: the % may be the effect or the level left.
A further assay is filed under the species Rattus norvegicus. The experiment in a line: Inhibition of AMP-activated Protein Kinase. Details: scale not given: the % may be the effect or the level left.
Assay [5] deals with T2, Protein kinase C epsilon type (Homo sapiens) (UniProt Q02156).
T2 sequence (whole entry): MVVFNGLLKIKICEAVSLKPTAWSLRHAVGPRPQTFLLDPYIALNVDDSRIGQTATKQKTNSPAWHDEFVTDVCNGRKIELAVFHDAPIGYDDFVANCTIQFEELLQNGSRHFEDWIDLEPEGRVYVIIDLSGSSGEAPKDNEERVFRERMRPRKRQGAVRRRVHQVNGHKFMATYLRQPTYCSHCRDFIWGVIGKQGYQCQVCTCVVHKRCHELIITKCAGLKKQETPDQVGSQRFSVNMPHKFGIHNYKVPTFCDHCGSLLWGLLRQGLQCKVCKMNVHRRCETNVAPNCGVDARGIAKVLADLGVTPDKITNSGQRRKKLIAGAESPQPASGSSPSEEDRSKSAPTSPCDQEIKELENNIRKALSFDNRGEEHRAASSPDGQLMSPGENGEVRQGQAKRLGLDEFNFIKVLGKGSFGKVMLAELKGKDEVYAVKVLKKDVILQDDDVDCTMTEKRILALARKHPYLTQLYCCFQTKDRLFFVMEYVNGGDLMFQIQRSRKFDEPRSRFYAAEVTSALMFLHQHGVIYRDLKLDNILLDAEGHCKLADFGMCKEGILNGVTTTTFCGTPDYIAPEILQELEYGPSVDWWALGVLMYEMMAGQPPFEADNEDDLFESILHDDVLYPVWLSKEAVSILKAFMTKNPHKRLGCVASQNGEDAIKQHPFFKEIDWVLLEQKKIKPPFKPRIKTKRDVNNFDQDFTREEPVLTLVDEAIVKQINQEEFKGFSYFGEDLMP
As to the kind of experiment: Inhibition of PKCepsilon. Details: scale not given: the % may be the effect or the level left.

Assay [6] deals with T3, Inhibitor of nuclear factor kappa-B kinase subunit beta (Homo sapiens) (UniProt O14920).
T3 sequence (whole entry): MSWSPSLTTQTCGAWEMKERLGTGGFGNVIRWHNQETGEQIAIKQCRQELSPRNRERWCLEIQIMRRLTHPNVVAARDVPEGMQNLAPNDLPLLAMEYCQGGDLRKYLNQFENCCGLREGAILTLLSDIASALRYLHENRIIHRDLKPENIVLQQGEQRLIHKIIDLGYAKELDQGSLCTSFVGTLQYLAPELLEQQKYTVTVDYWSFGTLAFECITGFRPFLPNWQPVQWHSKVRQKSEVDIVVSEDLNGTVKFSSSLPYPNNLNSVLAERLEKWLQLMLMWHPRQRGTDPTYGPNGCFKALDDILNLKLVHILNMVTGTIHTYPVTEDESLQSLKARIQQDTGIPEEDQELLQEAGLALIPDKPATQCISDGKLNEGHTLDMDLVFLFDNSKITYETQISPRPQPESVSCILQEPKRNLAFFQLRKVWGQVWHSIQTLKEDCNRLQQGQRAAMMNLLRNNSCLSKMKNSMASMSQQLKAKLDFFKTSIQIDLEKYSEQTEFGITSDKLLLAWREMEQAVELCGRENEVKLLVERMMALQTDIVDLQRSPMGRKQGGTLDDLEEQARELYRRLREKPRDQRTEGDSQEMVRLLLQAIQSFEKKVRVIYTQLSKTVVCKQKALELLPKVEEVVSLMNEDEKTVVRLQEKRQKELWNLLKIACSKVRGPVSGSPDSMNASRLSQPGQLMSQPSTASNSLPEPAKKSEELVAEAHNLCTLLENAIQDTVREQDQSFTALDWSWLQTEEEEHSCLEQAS
As to the kind of experiment: Inhibition of I-kappa-B-kinase beta. Details: scale not given: the % may be the effect or the level left.

In assay [7] the target is T4, Inhibitor of nuclear factor kappa-B kinase subunit alpha (Homo sapiens) (UniProt O15111).
T4 sequence (whole entry): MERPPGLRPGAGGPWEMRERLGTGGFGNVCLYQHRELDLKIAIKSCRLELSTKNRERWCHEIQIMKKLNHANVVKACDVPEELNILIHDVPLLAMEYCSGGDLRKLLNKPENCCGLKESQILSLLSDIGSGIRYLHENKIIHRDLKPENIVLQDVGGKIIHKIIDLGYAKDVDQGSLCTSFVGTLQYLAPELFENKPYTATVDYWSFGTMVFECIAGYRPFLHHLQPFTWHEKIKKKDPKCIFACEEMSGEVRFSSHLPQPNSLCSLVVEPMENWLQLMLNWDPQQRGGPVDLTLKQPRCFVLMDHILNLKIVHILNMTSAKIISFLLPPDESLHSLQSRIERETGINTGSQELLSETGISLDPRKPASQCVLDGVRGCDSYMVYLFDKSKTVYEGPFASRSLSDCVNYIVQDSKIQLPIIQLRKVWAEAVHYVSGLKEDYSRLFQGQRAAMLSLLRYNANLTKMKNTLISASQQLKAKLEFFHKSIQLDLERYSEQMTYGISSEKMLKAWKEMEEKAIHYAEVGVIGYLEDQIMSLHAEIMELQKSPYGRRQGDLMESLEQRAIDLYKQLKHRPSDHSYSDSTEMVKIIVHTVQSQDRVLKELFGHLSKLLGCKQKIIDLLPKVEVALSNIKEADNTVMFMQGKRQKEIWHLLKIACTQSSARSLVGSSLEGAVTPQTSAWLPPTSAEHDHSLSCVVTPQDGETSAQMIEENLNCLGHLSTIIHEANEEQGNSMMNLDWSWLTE
The experiment in a line: Inhibition of I kappa-B kinase alpha. Details: scale not given: the % may be the effect or the level left.

A further assay is filed under the species Bos taurus. The experiment in a line: Inhibition of bovine PKA. Details: scale not given: the % may be the effect or the level left.

Sequence of Mitogen-activated protein kinase 3 (Homo sapiens) (P27361 whole entry): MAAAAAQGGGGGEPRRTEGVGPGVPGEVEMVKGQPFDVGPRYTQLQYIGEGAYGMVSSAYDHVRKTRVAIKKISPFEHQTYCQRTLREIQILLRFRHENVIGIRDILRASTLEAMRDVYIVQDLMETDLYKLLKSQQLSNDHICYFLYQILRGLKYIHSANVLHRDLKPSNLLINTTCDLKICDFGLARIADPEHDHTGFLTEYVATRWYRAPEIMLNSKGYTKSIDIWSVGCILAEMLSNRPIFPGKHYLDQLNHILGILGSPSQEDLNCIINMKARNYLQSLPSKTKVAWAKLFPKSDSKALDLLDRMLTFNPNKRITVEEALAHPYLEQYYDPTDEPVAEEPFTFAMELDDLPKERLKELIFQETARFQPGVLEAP

For orientation: IC50 means the concentration needed to halve the response being measured. For `COc1ccccc1C1=C(c2cn(CCCNC(=O)OC(C)(C)C)c3ncccc23)C(=O)NC1=O`, the Activity in assay [1] stood at 81%; in assay [3] it was 20%; in [4] it was 103%; in the assay filed under Rattus norvegicus it was 64%; in [5], 54%; in assay [6] it was 91%. Besides, the Activity in assay [7] stood at 89%; in the assay filed under Bos taurus, 112%. The compound further returned an IC50 in assay [2] of 170 nM.

Turning to `COCCCn1cc(C2=C(c3ccccc3O)C(=O)NC2=O)c2cccnc21`, the Activity is 78% in [1]; 78% in assay [3]; 93% in [4]; 68% in the assay listed under Rattus norvegicus; 49% in assay [5]; 81% in [6]. For the same compound, the Activity in [7] was 83%; in the assay filed under Bos taurus, 99%. Besides, the concentration for half-maximal inhibition (IC50) in assay [2] turned out to be 700 nM.

With `O=C1NC(=O)C(c2cn(CCCO)c3ncccc23)=C1c1ncc(C(F)(F)F)cc1Cl`, the Activity is 66% in assay [1]; 79% in [3]; 56% in assay [4]; 74% in the assay listed under Rattus norvegicus; 67% in assay [5]; 83% in assay [6]. Besides, the Activity in [7] was 76%; in the assay listed under Bos taurus, 86%. The compound further had a concentration for half-maximal inhibition (IC50) in assay [2] of 5800 nM.

The record behind these values is ChEMBL document CHEMBL1146654, “3-(7-Azaindolyl)-4-arylmaleimides as potent, selective inhibitors of glycogen synthase kinase-3” (Bioorg Med Chem Lett, 2004).
